# Test results published in ChEMBL document CHEMBL3727348, “3-(aryl or heteroaryl) methyleneindolin-2-one derivatives as inhibitors of cancer stem cell pathway kinases for the treatment of cancer” (2014).
# Tested on: FaDu
# Assay: Cytotoxic activity against human FADU cancer stem cells incubated for 72 hrs by Cell-titer-Glo luminescence assay
# Format: functional, cell-based
# Conditions: not given
row,Compound,IC50 [µM]
1,CCN(CC)CCNC(=O)c1c(C)[nH]c(/C=C2\C(=O)Nc3ccc(-c4n[nH]c5c(N)cccc45)cc32)c1C,28.4
2,CCN(CC)CCNC(=O)c1c(C)[nH]c(/C=C2\C(=O)Nc3ccc(-c4cnc(-c5ccccc5)cn4)cc32)c1C,39.1
3,Cc1cc(C)c(/C=C2\C(=O)Nc3ccc(-c4csc(-n5cccn5)n4)cc32)[nH]1,27.2
4,Cc1cc(C)c(/C=C2\C(=O)Nc3ccc(-c4cnc5ccccn45)cc32)[nH]1,17
5,CCN(CC)CCNC(=O)c1c(C)[nH]c(/C=C2\C(=O)Nc3cc(-c4ccc5ccccc5n4)ccc32)c1C,5.15
6,Cc1[nH]c(/C=C2\C(=O)Nc3ccc(-c4cnn(-c5ccccn5)c4)cc32)c(C)c1C(=O)N1CCN(C)CC1,0.24
7,CCN(CC)CCNC(=O)c1c(C)[nH]c(/C=C2\C(=O)Nc3cc(-c4csc(-c5ccccc5)n4)ccc32)c1C,0.6
8,O=C1Nc2ccc(-c3csc(-c4ccccc4)n3)cc2/C1=C/c1[nH]cc2ccccc12,5.04
9,Cc1cc(C)c(/C=C2\C(=O)Nc3ccc(-c4ncccn4)cc32)[nH]1,25.2
10,CCN(CC)CCNC(=O)c1c(C)[nH]c(/C=C2\C(=O)Nc3ccc(-c4csc(-c5ccc(C)cc5)n4)cc32)c1C,3.4
11,CCN(CC)CCNC(=O)c1c(C)[nH]c(/C=C2\C(=O)Nc3ccc(-c4csc(-c5cccc(CCC(=O)O)c5)n4)cc32)c1C,4.88

# Tested on: FaDu
# Assay: Cytotoxic activity against human FADU bulk cells incubated for 72 hrs by Cell-titer-Glo luminescence assay
# Format: functional, cell-based
# Conditions: not given
row,Compound,IC50 [µM]
1,Cc1cc(C)c(/C=C2\C(=O)Nc3ccc(-c4cc(-c5ccccc5)ccn4)cc32)[nH]1,22.4
2,Cc1ccc(-c2ccc3c(c2)/C(=C/c2[nH]c(C)cc2C)C(=O)N3)nc1,37.3
3,CCN(CC)CCNC(=O)c1c(C)[nH]c(/C=C2\C(=O)Nc3ccc(-c4ccc5ccccc5n4)cc32)c1C,0.92
4,CCN(CC)CCN1CCCc2[nH]c(/C=C3\C(=O)Nc4ccc(-c5csc(C6CCNCC6)n5)cc43)c(C)c2C1=O,8.67
5,CCN(CC)CCNC(=O)c1c(C)[nH]c(/C=C2\C(=O)Nc3ccc(-c4n[nH]c5c(N)cccc45)cc32)c1C,7.09
6,O=C1Nc2ccc(-c3csc(-c4ccncc4)n3)cc2/C1=C/c1ncc[nH]1,3.42
7,CCOC(=O)c1cc(C)c(/C=C2\C(=O)Nc3ccc(-c4csc(-c5ccccc5)n4)cc32)[nH]1,13.5
8,CCN(CC)CCNC(=O)c1c(C)[nH]c(/C=C2\C(=O)Nc3ccc(-c4cnc(SC)cn4)cc32)c1C,5.96
9,CCN(CC)CCNC(=O)c1c(C)[nH]c(/C=C2\C(=O)Nc3ccc(-c4cnc(-c5ccccc5)cn4)cc32)c1C,17.5
10,Cc1cc(C)c(/C=C2\C(=O)Nc3ccc(-c4csc(-n5cccn5)n4)cc32)[nH]1,20.8
11,CCN(CC)CCNC(=O)c1c(C)[nH]c(/C=C2\C(=O)Nc3ccc(-c4csc(C5CCNC5)n4)cc32)c1C (configuration not stated),2.42
12,Cc1cc(C)c(/C=C2\C(=O)Nc3ccc(-c4cnc5ccccn45)cc32)[nH]1,11.4
13,CCN(CC)CCNC(=O)c1c(C)[nH]c(/C=C2\C(=O)Nc3cc(-c4ccc5ccccc5n4)ccc32)c1C,16.6
14,Cc1[nH]c(/C=C2\C(=O)Nc3ccc(-c4cnn(-c5ccccn5)c4)cc32)c(C)c1C(=O)N1CCN(C)CC1,3.67
15,CCN(CC)CCNC(=O)c1c(C)[nH]c(/C=C2\C(=O)Nc3cc(-c4csc(-c5ccccc5)n4)ccc32)c1C,1.8
16,Cc1cc(C)c(/C=C2\C(=O)Nc3ccc(-c4ncccn4)cc32)[nH]1,26.1
17,CCN(CC)CCNC(=O)c1c(C)[nH]c(/C=C2\C(=O)Nc3ccc(-c4csc(-c5cccc(CCC(=O)O)c5)n4)cc32)c1C,1.77

# Tested on: A549
# Assay: Cytotoxic activity against human A549 cancer stem cells incubated for 72 hrs by Cell-titer-Glo luminescence assay
# Format: functional, cell-based
# Conditions: A549, 72 h
row,Compound,IC50 [µM]
1,Cc1cc(C)c(/C=C2\C(=O)Nc3ccc(-c4cc(-c5ccccc5)ccn4)cc32)[nH]1,35.7
2,CCN(CC)CCNC(=O)c1c(C)[nH]c(/C=C2\C(=O)Nc3ccc(-c4ccc5ccccc5n4)cc32)c1C,1.51
3,O=C1Nc2ccc(-c3csc(-c4ccncc4)n3)cc2/C1=C/c1cc2c([nH]1)CCCC2,0.8
4,O=C1Nc2ccc(-c3csc(-c4ccncc4)n3)cc2/C1=C/c1ncc[nH]1,2.6
5,CCOC(=O)c1cc(C)c(/C=C2\C(=O)Nc3ccc(-c4csc(-c5ccccc5)n4)cc32)[nH]1,13.2
6,CCN(CC)CCNC(=O)c1c(C)[nH]c(/C=C2\C(=O)Nc3ccc(-c4cnc(SC)cn4)cc32)c1C,30
7,CCN(CC)CCNC(=O)c1c(C)[nH]c(/C=C2\C(=O)Nc3ccc(-c4cnc(-c5ccccc5)cn4)cc32)c1C,43.6
8,Cc1cc(C)c(/C=C2\C(=O)Nc3ccc(-c4csc(-n5cccn5)n4)cc32)[nH]1,16.2
9,CCN(CC)CCNC(=O)c1c(C)[nH]c(/C=C2\C(=O)Nc3ccc(-c4csc(C5CCNC5)n4)cc32)c1C (configuration not stated),32.5
10,Cc1cc(C)c(/C=C2\C(=O)Nc3ccc(-c4cnc5ccccn45)cc32)[nH]1,20.2
11,CCN(CC)CCNC(=O)c1c(C)[nH]c(/C=C2\C(=O)Nc3cc(-c4ccc5ccccc5n4)ccc32)c1C,6.59
12,Cc1[nH]c(/C=C2\C(=O)Nc3ccc(-c4cnn(-c5ccccn5)c4)cc32)c(C)c1C(=O)N1CCN(C)CC1,11.7
13,CCN(CC)CCNC(=O)c1c(C)[nH]c(/C=C2\C(=O)Nc3cc(-c4csc(-c5ccccc5)n4)ccc32)c1C,3.73
14,Cc1cc(C)c(/C=C2\C(=O)Nc3ccc(-c4ncccn4)cc32)[nH]1,28.7
15,CCN(CC)CCNC(=O)c1c(C)[nH]c(/C=C2\C(=O)Nc3ccc(-c4csc(-c5ccc(C)cc5)n4)cc32)c1C,10.5
16,CCN(CC)CCNC(=O)c1c(C)[nH]c(/C=C2\C(=O)Nc3ccc(-c4csc(-c5cccc(CCC(=O)O)c5)n4)cc32)c1C,4.21

# Tested on: ACHN
# Assay: Cytotoxic activity against human ACHN cancer stem cells incubated for 72 hrs by Cell-titer-Glo luminescence assay
# Format: functional, cell-based
# Conditions: not given
row,Compound,IC50 [µM]
1,Cc1ccc(-c2ccc3c(c2)/C(=C/c2[nH]c(C)cc2C)C(=O)N3)nc1,0.05
2,CCN(CC)CCNC(=O)c1c(C)[nH]c(/C=C2\C(=O)Nc3ccc(-c4ccc5ccccc5n4)cc32)c1C,0.33
3,Cc1ccc(-c2ccc3c(c2)/C(=C/c2[nH]c(C)cc2C)C(=O)N3)cn1,0.01
4,CSc1cnc(-c2ccc3c(c2)/C(=C/c2[nH]c(C)cc2C)C(=O)N3)cn1,18.3
5,CCN(CC)CCN1CCCc2[nH]c(/C=C3\C(=O)Nc4ccc(-c5csc(C6CCNCC6)n5)cc43)c(C)c2C1=O,11.9
6,Cc1cc(C)c(/C=C2\C(=O)Nc3ccc(-c4cnc(-c5ccccc5)cn4)cc32)[nH]1,6.8
7,CCN(CC)CCNC(=O)c1c(C)[nH]c(/C=C2\C(=O)Nc3ccc(-c4n[nH]c5c(N)cccc45)cc32)c1C,30.9
8,O=C1Nc2ccc(-c3csc(-c4ccncc4)n3)cc2/C1=C/c1ncc[nH]1,9.21
9,Cc1cc(C)c(/C=C2\C(=O)Nc3ccc(-c4ccccn4)cc32)[nH]1,0.02
10,Cc1cc(C)c(/C=C2\C(=O)Nc3ccc(-c4ccncc4)cc32)[nH]1,6.95
11,CCN(CC)CCNC(=O)c1c(C)[nH]c(/C=C2\C(=O)Nc3cc(-c4ccc5ccccc5n4)ccc32)c1C,1.36
12,CCN(CC)CCNC(=O)c1c(C)[nH]c(/C=C2\C(=O)Nc3cc(-c4csc(-c5ccccc5)n4)ccc32)c1C,0.19
13,O=C1Nc2ccc(-c3csc(-c4ccccc4)n3)cc2/C1=C/c1[nH]cc2ccccc12,4.08
14,CCN(CC)CCNC(=O)c1c(C)[nH]c(/C=C2\C(=O)Nc3ccc(-c4csc(-c5ccc(C)cc5)n4)cc32)c1C,0.69

# Tested on: A549
# Assay: Cytotoxic activity against human A549 bulk cells incubated for 72 hrs by Cell-titer-Glo luminescence assay
# Format: functional, cell-based
# Conditions: A549, 72 h
row,Compound,IC50 [µM]
1,Cc1cc(C)c(/C=C2\C(=O)Nc3ccc(-c4cc(-c5ccccc5)ccn4)cc32)[nH]1,13.8
2,CCN(CC)CCNC(=O)c1c(C)[nH]c(/C=C2\C(=O)Nc3ccc(-c4ccc5ccccc5n4)cc32)c1C,1.8
3,Cc1ccc(-c2ccc3c(c2)/C(=C/c2[nH]c(C)cc2C)C(=O)N3)cn1,25.8
4,CSc1cnc(-c2ccc3c(c2)/C(=C/c2[nH]c(C)cc2C)C(=O)N3)cn1,35.8
5,CCN(CC)CCN1CCCc2[nH]c(/C=C3\C(=O)Nc4ccc(-c5csc(C6CCNCC6)n5)cc43)c(C)c2C1=O,7.06
6,CCN(CC)CCNC(=O)c1c(C)[nH]c(/C=C2\C(=O)Nc3ccc(-c4n[nH]c5c(N)cccc45)cc32)c1C,11.6
7,O=C1Nc2ccc(-c3csc(-c4ccncc4)n3)cc2/C1=C/c1ncc[nH]1,14.8
8,CCOC(=O)c1cc(C)c(/C=C2\C(=O)Nc3ccc(-c4csc(-c5ccccc5)n4)cc32)[nH]1,40
9,CCN(CC)CCNC(=O)c1c(C)[nH]c(/C=C2\C(=O)Nc3ccc(-c4cnc(SC)cn4)cc32)c1C,6.06
10,CCN(CC)CCNC(=O)c1c(C)[nH]c(/C=C2\C(=O)Nc3ccc(-c4cnc(-c5ccccc5)cn4)cc32)c1C,16.9
11,Cc1cc(C)c(/C=C2\C(=O)Nc3ccc(-c4csc(-n5cccn5)n4)cc32)[nH]1,9.76
12,CCN(CC)CCNC(=O)c1c(C)[nH]c(/C=C2\C(=O)Nc3ccc(-c4csc(C5CCNC5)n4)cc32)c1C (configuration not stated),0.72
13,Cc1cc(C)c(/C=C2\C(=O)Nc3ccc(-c4cnc5ccccn45)cc32)[nH]1,16.6
14,CCN(CC)CCNC(=O)c1c(C)[nH]c(/C=C2\C(=O)Nc3cc(-c4ccc5ccccc5n4)ccc32)c1C,16.4
15,Cc1[nH]c(/C=C2\C(=O)Nc3ccc(-c4cnn(-c5ccccn5)c4)cc32)c(C)c1C(=O)N1CCN(C)CC1,18.9

# Tested on: ACHN
# Assay: Cytotoxic activity against human ACHN bulk cells incubated for 72 hrs by Cell-titer-Glo luminescence assay
# Format: functional, cell-based
# Conditions: not given
row,Compound,IC50 [µM]
1,CCN(CC)CCNC(=O)c1c(C)[nH]c(/C=C2\C(=O)Nc3ccc(-c4ccc5ccccc5n4)cc32)c1C,2.74
2,Cc1ccc(-c2ccc3c(c2)/C(=C/c2[nH]c(C)cc2C)C(=O)N3)cn1,24.9
3,CSc1cnc(-c2ccc3c(c2)/C(=C/c2[nH]c(C)cc2C)C(=O)N3)cn1,0.16
4,O=C1Nc2ccc(-c3csc(-c4ccncc4)n3)cc2/C1=C/c1cc2c([nH]1)CCCC2,37.8
5,CCN(CC)CCNC(=O)c1c(C)[nH]c(/C=C2\C(=O)Nc3ccc(-c4n[nH]c5c(N)cccc45)cc32)c1C,12
6,O=C1Nc2ccc(-c3csc(-c4ccncc4)n3)cc2/C1=C/c1ncc[nH]1,0.29
7,CCOC(=O)c1cc(C)c(/C=C2\C(=O)Nc3ccc(-c4csc(-c5ccccc5)n4)cc32)[nH]1,0.39
8,CCN(CC)CCNC(=O)c1c(C)[nH]c(/C=C2\C(=O)Nc3ccc(-c4cnc(SC)cn4)cc32)c1C,12.3
9,CCN(CC)CCNC(=O)c1c(C)[nH]c(/C=C2\C(=O)Nc3ccc(-c4cnc(-c5ccccc5)cn4)cc32)c1C,25.8
10,Cc1cc(C)c(/C=C2\C(=O)Nc3ccc(-c4csc(-n5cccn5)n4)cc32)[nH]1,9
11,CCN(CC)CCNC(=O)c1c(C)[nH]c(/C=C2\C(=O)Nc3ccc(-c4csc(C5CCNC5)n4)cc32)c1C (configuration not stated),6.75
12,Cc1cc(C)c(/C=C2\C(=O)Nc3ccc(-c4cnc5ccccn45)cc32)[nH]1,25.2
13,Cc1cc(C)c(/C=C2\C(=O)Nc3ccc(-c4ncccn4)cc32)[nH]1,25.3
14,CCN(CC)CCNC(=O)c1c(C)[nH]c(/C=C2\C(=O)Nc3ccc(-c4csc(-c5cccc(CCC(=O)O)c5)n4)cc32)c1C,1.27
